Test results from US7632952B2, “Benzothiazoles and the use thereof as medicaments” (Aventis Pharma S.A., priority 2004, dated 2009).
pIC50: −log10 of the molar value. Counter-ions that a name gives are not always drawn.

The compounds below were run against T1, Aurora 2 (Homo sapiens, UniProt O14965) (assay: Aurora 2 kinase radioactivity scintillation test).
T1 construct: A complete recombinant Aurora 2 enzyme, the N-terminal end of which was labeled with histidine; His tag (N); made in house; host or cells: E. coli
T1 sequence (O14965 1-403): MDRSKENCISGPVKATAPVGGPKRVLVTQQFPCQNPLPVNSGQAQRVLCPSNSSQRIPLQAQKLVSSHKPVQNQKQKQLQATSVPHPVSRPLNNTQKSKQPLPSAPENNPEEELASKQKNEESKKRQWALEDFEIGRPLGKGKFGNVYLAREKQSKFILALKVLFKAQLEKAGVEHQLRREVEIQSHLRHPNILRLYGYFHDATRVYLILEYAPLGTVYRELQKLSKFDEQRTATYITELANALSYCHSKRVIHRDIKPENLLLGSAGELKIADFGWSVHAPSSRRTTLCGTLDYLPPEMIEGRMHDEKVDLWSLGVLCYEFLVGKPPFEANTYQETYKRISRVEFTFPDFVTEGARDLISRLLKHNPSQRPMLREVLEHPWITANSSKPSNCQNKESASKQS
Format: biochemical
Experimental: The inhibitory effect of the compounds toward the kinase Aurora 2 is determined via a radioactivity scintillation test.
A complete recombinant Aurora 2 enzyme, the N-terminal end of which was labeled with histidine, was expressed in E. coli and purified to a quality close to homogeneity.
The C-terminal fragment (Q1687-H2101) of an NuMA (nuclear protein which is associated with the Mitotic Apparatus) expressed in E. coli, and the N-terminal end of which was labeled with histidine, was purified by chromatography with nickel chelate and used as substrate in the Aurora 2 kinase test.
The kinase activity of Aurora 2 is measured by scintillation on a microplate saturated with nickel chelate (New England Nuclear, SMP107 model). Each well contains 100 μl of the following solution: 0.02 μM of Aurora 2; 0.5 μM of NuMA substrate; 1 μM of ATP supplemented with 0.5 μCi of ATP-[^33P]. The solutions are incubated for 45 minutes at 37° C. The test buffer is then removed and the wells are rinsed twice with 300 μl of kinase buffer. The radioactivity is measured in each well using a Packard Model Top Count NXT machine.
The background noise is measured in duplicate in wells containing the radioactive ATP alone containing buffered kinase treated in the same manner as for the other samples.
The activity of the control is determined by measuring in duplicate the radioactivity in the complete test mixture (ATP, Aurora 2 and NuMA substrate), in the absence of test compound.
The inhibition of the activity of Aurora 2 with a compound of the invention is expressed as a percentage of inhibition of the control activity in the absence of test compound. Staurosporin is added to each plate as inhibition control.

Compound	pIC50
O=C(Nc1nc2ccc(OS(=O)(=O)c3ccc(-c4ccccn4)s3)cc2s1)C1CC1 [Example 85, 5-pyridin-2-ylthiophene-2-sulfonic acid 2-(cyclopropanecarbonylamino)benzothiazol-6-yl ester]	5.16
CC(=O)Nc1nc2ccc(OS(=O)(=O)c3ccc(NCCN(C(C)C)C(C)C)cc3)cc2s1 [Example 43, 4-(2-Diisopropylaminoethylamino)benzenesulfonic acid 2-acetylaminobenzothiazol-6-yl ester]	5.70
CC(C)(CNc1ccc(S(=O)(=O)Oc2ccc3nc(NC(=O)C4CC4)sc3c2)cc1)OP(=O)(O)O [Example 89, 4-(2-methyl-2-phosphonooxypropylamino)benzene-sulfonic acid 2-(cyclopropanecarbonylamino)benzothiazol-6-yl ester]	6.59
CC(C)(O)CNc1ccc(S(=O)(=O)Oc2ccc3nc(NC(=O)C4CC4)sc3c2)cc1 [Example 11, 4-(2-hydroxy-2-methylpropylamino)benzene-sulfonic 2-(cyclopropanecarbonylamino)benzothiazol-6-yl ester]	6.98
O=C(Nc1nc2ccc(OS(=O)(=O)c3cccs3)cc2s1)C1CC1 [Example 33h, Thiophene-2-sulfonic acid 2-(cyclopro-panecarbonylamino)benzothiazol-6-yl ester]	7.17
O=C(Nc1nc2ccc(OS(=O)(=O)c3ccc(NCCCn4ccnc4)cc3)cc2s1)C1CC1 [Example 9, 4-(3-imidazol-1-ylpropylamino)benzenesulfonic 2-(cyclopropanecarbonylamino)benzothiazol-6-yl ester]	7.19
CC(=O)Nc1nc2ccc(OS(=O)(=O)c3ccc(NCCNC(C)C)cc3)cc2s1 [Example 65, 4-(2-isopropylaminoethylamino)benzenesulfonic acid 2-acetylaminobenzothiazol-6-yl ester]	6.08
CC(C)C(=O)Nc1nc2ccc(OS(=O)(=O)c3ccc(NCCN(C(C)C)C(C)C)cc3)cc2s1 [Example 55, 4-(2-diisopropylaminoethylamino)benzenesulfonic acid 2-isobutyrylaminobenzothiazol-6-yl ester hydrochloride]	5.23
CC(C)N(CCNc1ccc(S(=O)(=O)Oc2ccc3nc(NC(=O)C4(N)CCCC4)sc3c2)cc1)C(C)C [Example 41, 4-(2-diisopropylaminoethylamino)benzenesulfonic acid 2-[(1-aminocyclopentanecarbonyl)amino]benzothiazol-6-yl ester]	6.49
CC(C)(O)CNc1ccc(S(=O)(=O)Oc2ccc3nc(NC(=O)CCc4cccnc4)sc3c2)cc1 [Example 63, 4-(2-hydroxy-2-methylpropylamino)benzene-sulfonic acid 2-(3-pyrid-3-ylpropionylamino)benzothiazol-6-yl ester hydro-chloride]	5.98
CCC(=O)Nc1nc2ccc(OS(=O)(=O)c3ccc(NCCN(C(C)C)C(C)C)cc3)cc2s1 [Example 57, 4-(2-diisopropylaminoethylamino)benzenesulfonic acid 2-propionylaminobenzothiazol-6-yl ester hydrochloride]	5.50
COCC(=O)Nc1nc2ccc(OS(=O)(=O)c3ccc(NCCN(C(C)C)C(C)C)cc3)cc2s1 [Example 44, 4-(2-Diisopropylaminoethylamino)benzenesulfonic acid 2-(2-methoxyacetylamino)benzothiazol-6-yl ester]	5.51
CC(C)NCCNc1ccc(S(=O)(=O)Oc2ccc3nc(NC(=O)C4CC4)sc3c2)cc1 [Example 53, 4-(2-isopropylaminoethylamino)benzenesulfonic 2-(cyclopropanecarbonylamino)benzothiazol-6-yl ester hydrochloride]	6.76
CC(C)N(CCNc1ccc(S(=O)(=O)Oc2ccc3nc(NC(=O)C4CC4)sc3c2)cc1)C(C)C [Example 12, 4-(2-diisopropylaminoethylamino)benzenesulfonic 2-(cyclopropanecarbonylamino)benzothiazol-6-yl ester]	6.76
CC(C)N(CCNc1ccc(S(=O)(=O)Oc2ccc3nc(NC(=O)C4CCC4)sc3c2)cc1)C(C)C [Example 60, 4-(2-diisopropylaminoethylamino)benzenesulfonic acid 2-(cyclobutanecarbonylamino)benzothiazol-6-yl ester hydrochloride]	5.55
CC(C)N(CCNc1ccc(S(=O)(=O)Oc2ccc3nc(NC(=O)C4CCCC4)sc3c2)cc1)C(C)C [Example 45, 4-(2-Diisopropylaminoethylamino)benzenesulfonic acid 2-(cyclo-pentanecarbonylamino)benzothiazol-6-yl ester]	5.54
CNc1ccc(S(=O)(=O)Oc2ccc3nc(NC(=O)C4CC4)sc3c2)cc1 [Example 10, 4-methylaminobenzenesulfonic 2-(cyclopropane-carbonylamino)benzothiazol-6-yl ester]	7.47
